Test results published in PubChem BioAssay AID1259332 (Broad Institute, 2017).
Active and inactive are the calls of the source. The rule behind the calls is not given here.

Tests used:
[1] = CD40 pathway inhibition in B cells – B cell lineage, dose response (AID 1259332); details: B cell line, CD40 signaling inhibition reporter;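 note: cells stimulated with CD40 ligand tCD40L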;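 for activity change, negative = inhibition: 0% = neutral control wells and -100% = positive control wells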
[2] = test system: B cell line, CD40 signaling inhibition reporter; experiment: as above

SMILES	AC50 [2]	further results
C[C@@H]1CCCCO[C@@H](CN(C)C(=O)C2CCCCC2)[C@@H](C)CN([C@H](C)CO)C(=O)c2cc(NS(=O)(=O)c3ccccc3)ccc2O1		activity change, negative = inhibition ([1]; at 3.5 µM (top of the series)): -0.82% (inactive)
N#Cc1cccc(-c2ccc([C@@H]3[C@H](CO)N4CCCCN(C(=O)Nc5cccc(F)c5)C[C@@H]34)cc2)c1		activity change, negative = inhibition ([1]; at 3.5 µM (top of the series)): 18.1% (inactive)
COCCn1c(C)cc(C(=O)COC(=O)c2ccc(Br)o2)c1C		activity change, negative = inhibition ([1]; at 10 µM (top of the series)): -11.7% (inactive)
CC(C)Cc1ccc(C(C)/C=C2/CCC(CN3CCCCC3)C2=O)cc1 (stereo unspecified)		activity change, negative = inhibition ([1]; at 10 µM (top of the series)): -18.1% (inactive)
CCc1cnc(N2[C@H](C#N)[C@H](c3ccc(C#CCC4CCCC4)cc3)[C@@H]2CO)s1		activity change, negative = inhibition ([1]; at 0.35 µM (top of the series)): 4.84% (inactive)
COc1ccc(-c2cnc3c(c2)C(=O)N([C@H](C)CO)C[C@@H](C)[C@@H](CN(C)C(=O)Nc2c(C)noc2C)O3)cc1		activity change, negative = inhibition ([1]; at 3.5 µM (top of the series)): -1.25% (inactive)
O=S(=O)(c1cccc2cnccc12)N1CCNCC1		activity change, negative = inhibition ([1]; at 3.5 µM (top of the series)): -9.07% (inactive)
O=C(CCN1CCC(c2ccccc2)C1)c1ccc2c(c1)OCCO2 (stereo unspecified)		activity change, negative = inhibition ([1]; at 3.5 µM (top of the series)): 26.9% (inactive)
C[C@H](CO)N1C[C@H](C)[C@H](CN(C)CC2CCCCC2)Oc2ccc(NC(=O)Nc3ccc(C(F)(F)F)cc3)cc2C1=O		activity change, negative = inhibition ([1]; at 3.5 µM (top of the series)): 4.59% (inactive)
Cc1ccc2nc(-c3cc(-c4ccccc4)no3)cn2c1		activity change, negative = inhibition ([1]; at 10 µM (top of the series)): 34.4% (inactive)
Cc1cc(C(=O)COC(=O)c2cccn2C)c(C)n1Cc1ccco1		activity change, negative = inhibition ([1]; at 10 µM (top of the series)): -4.27% (inactive)
O=C1C(=NO)CCc2ccccc21		activity change, negative = inhibition ([1]; at 1.1 µM (top of the series)): 21.3% (inactive)
NS(=O)(=O)c1cc2c(cc1C(F)(F)F)NC(Cc1ccccc1)NS2(=O)=O (stereo unspecified)		activity change, negative = inhibition ([1]; at 10 µM (top of the series)): 5.72% (inactive)
O=C(NCc1ccccn1)C1CCCN(S(=O)(=O)c2ccccc2)C1 (stereo unspecified)		activity change, negative = inhibition ([1]; at 10 µM (top of the series)): 8.97% (inactive)
N#C[C@H]1[C@H](c2ccc(C#CC3CCCCC3)cc2)[C@H](CO)N1C(=O)Nc1ccc(F)cc1		activity change, negative = inhibition ([1]; at 3.5 µM (top of the series)): -7.18% (inactive)
O=C(Nc1ccc(C(F)(F)F)cc1)Nc1ccc2c(c1)[C@H]1C[C@@H](CC(=O)N3CCc4ccccc4C3)O[C@H](CO)[C@H]1O2		activity change, negative = inhibition ([1]; at 3.5 µM (top of the series)): 0.714% (inactive)
Cc1noc(C)c1NC(=O)N(C)C[C@@H]1OCCCC[C@@H](C)Oc2ccc(NC(=O)Nc3ccc(C(F)(F)F)cc3)cc2C(=O)N([C@H](C)CO)C[C@H]1C		activity change, negative = inhibition ([1]; at 3.5 µM (top of the series)): -11.7% (inactive)
N#C[C@@H]1[C@H](c2ccc(C#CC3CCCCC3)cc2)[C@H](CO)N1C(=O)Nc1ccc(F)cc1	> 20 µM (inactive)	
Cc1ccc(S(=O)(=O)N[C@@H](Cc2ccccc2)C(=O)CCl)cc1	2.99 µM	
CC(=O)O[C@H]1C[C@H](O[C@H]2[C@@H](O)C[C@H](O[C@H]3[C@@H](O)C[C@H](O[C@H]4CC[C@@]5(C)C(CCC6C5C[C@@H](O)[C@]5(C)[C@@H](C7=CC(=O)OC7)CC[C@]65O)C4)O[C@@H]3C)O[C@@H]2C)O[C@H](C)[C@H]1O[C@@H]1O[C@H](CO)[C@@H](O)[C@H](O)[C@H]1O (stereo partly specified)	0.909 µM	
C[C@H](CO)N1C[C@H](C)[C@@H](CN(C)Cc2cccc(C(F)(F)F)c2)OCc2ccccc2-c2c(n(C)c3ccccc23)C1=O	> 20 µM (inactive)	
CC1CCOC(=O)C=CC=CC(=O)OC2CC3OC4C5OC5(C)C(O)CC4(COC(=O)C1O)C2(C)C31CO1 (stereo unspecified)	0.0446 µM	

SMILES	AC50 [2]	further results
CS(=O)(=O)c1ccc(C(=O)OCC(=O)NC(=O)C2CCCCC2)cc1[N+](=O)[O-]	> 20 µM (inactive)	
C=C1C(=O)OC2C=C(CO)C3OC3C3OC3(C)CC(OC(=O)/C(=C/C)COC(C)=O)C12 (stereo unspecified)	2.02 µM	
CC1CC(C)C(=NNC(N)=O)C(C(O)CC2CCC(=O)NC2=O)C1 (stereo unspecified)	0.241 µM	
CC1(C)C(=O)C=C[C@@]2(C)C1C=C[C@]1(C)C2CC[C@@]2(C)[C@H](c3ccoc3)OC(=O)[C@H]3O[C@]321 (stereo partly specified)	5.24 µM	
CCN(CC)C(=O)c1ccc(NC(=O)Nc2ccccc2F)cc1	2.35 µM	
CN(C)c1ccc(C=c2c3cc(O)ccc3n3c2cc(-c2ccccc2)[n+]3C)cc1	3.43 µM	
O=C(C1CCC1)N1CCc2cc(S(=O)(=O)N3CCCCC3)ccc21	> 20 µM (inactive)	
COc1ccc2cc(-c3cc(C(=O)O)c4ccccc4n3)ccc2c1	6.11 µM	
CC(C)NC(=O)N1Cc2cc(C(=O)NC3Cc4ccccc4C3)nc(-c3cccc(-c4cccnc4)c3)c2[C@@H]1CCO	10.6 µM	
N#C[C@H]1N[C@H](CO)[C@H]1c1ccc(C#CC2CCCC2)cc1	6.27 µM	
CC1=NNC(=O)C1Br (stereo unspecified)	7.86 µM	
CC1Cc2ccccc2N1c1ncnc(N)c1[N+](=O)[O-] (stereo unspecified)	7.92 µM	
Cc1ccc(-c2ccccc2[C@H]2[C@@H](C#N)N(c3ncc(-c4ccccc4)s3)[C@@H]2CO)cc1	> 20 µM (inactive)	
Cc1cc(C(=O)COC(=O)CNC(=O)c2ccccc2)c(C)n1CC1CCCO1 (stereo unspecified)	2.32 µM	
C=C1CC(Cn2cc(Br)c(=O)[nH]c2=O)(c2ccc(-c3ccccc3)cc2)OC1=O (stereo unspecified)	1.07 µM	
CC1CCCC=CC2CC(OC(=O)CN(C)C)CC2C(O)C=CC(=O)O1 (stereo unspecified)	1.77 µM	
N#C[C@H]1[C@H](c2ccc(C#Cc3ccccc3F)cc2)[C@@H](CO)N1C(=O)c1cccnc1	2.93 µM	
O=C(COc1cccnc1[N+](=O)[O-])c1ccc(Cl)s1	3.2 µM	
COc1ccc(S(=O)(=O)N(C)C[C@H]2Oc3ccc(NC(=O)Nc4ccc(C(F)(F)F)cc4)cc3C(=O)N([C@H](C)CO)C[C@H]2C)cc1	10.5 µM	
COc1ccc(/C=C2/CCC(CN3CCOCC3)C2=O)cc1 (stereo unspecified)	3.67 µM	
Cc1cnc(NC(=O)c2ccc(OCC3CCCO3)cc2)s1 (stereo unspecified)	3.03 µM	
Nc1ccc(-c2cccc3c(=O)cc(N4CCOCC4)oc23)cc1	10.9 µM	

SMILES	AC50 [2]	further results
Cc1ccc(O)c(N=Nc2ccccc2)n1	8.46 µM	
CC(=O)OCC12CC(OC(=O)CC(C)C)C(C)=CC1OC1C(O)C(OC(C)=O)C2(C)C12CO2 (stereo unspecified)	2.74 µM	
O=S(=O)(/C(=C\c1ccc(C(F)(F)F)cc1)c1nc2ccccc2[nH]1)c1ccccc1	2.26 µM	
O=C1CCCCC1Sc1nnc(-c2ccc3c(c2)OCO3)o1 (stereo unspecified)	0.951 µM	
c1ccc2nc(-c3nc4ccccc4o3)ccc2c1	4.54 µM	
CC(=O)OC1C(=O)OCC23CCC4(C)OC4C2OC2CC(OC(=O)C=CC=CC(=O)OCCC1C)C3(C)C21CO1 (stereo unspecified)	0.0056 µM	
C[C@@H]1CN([C@H](C)CO)C(=O)c2ccccc2-c2ccccc2CO[C@@H]1CN(C)C(=O)c1cc(Cl)cc(Cl)c1	7.99 µM	
CCN(CC)c1ccc(C(NC(=O)C(C)C)c2ccc3cccnc3c2O)cc1 (stereo unspecified)	> 20 µM (inactive)	
Cc1ccc2nc(C(F)(F)F)c(C#N)c(N)c2c1	6.7 µM	
C[C@@H]1CN([C@H](C)CO)C(=O)c2c(c3ccccc3n2C)-c2ccccc2CO[C@H]1CN(C)C(=O)Nc1cccc(Cl)c1Cl	7.74 µM	
COc1cccc(/C=N/Nc2ccc(C(=O)O)cc2)c1O	1.33 µM	
NC(=O)c1c(Br)n(C2OC(CO)C(O)C2O)c2ncnc(N)c12 (stereo unspecified)	3.84 µM	
C[C@@H]1CN([C@@H](C)CO)C(=O)c2c(c3ccccc3n2C)-c2ccccc2CO[C@H]1CN(C)Cc1cccc(C(F)(F)F)c1	10.7 µM	
COc1cccc(NC(=O)N2CC(=O)N3[C@H](CO)[C@@H](c4ccc(C#CCC5CCCC5)cc4)[C@H]3C2)c1	> 7 µM (inactive)	
CC(C)(C)OC(=O)CC(S(=O)(=O)c1ccccc1)S(=O)(=O)c1ccccc1	0.95 µM	
COc1ccc(CN(CCC(c2ccccc2)c2ccc(OC(C)C)cc2)C(=O)CCl)cc1OC (stereo unspecified)	1.68 µM	
Cc1ccc(S(=O)(=O)C=CS(=O)(=O)c2ccc(C)cc2)cc1	0.996 µM	
O=C(Nc1ccccc1)N1CC(=O)N2[C@H](CO)[C@@H](c3ccc(C#CC4CCCCC4)cc3)[C@H]2C1	11 µM	
CC(=O)OC1CCC2(C)C(CCC3C4CC=C(C(C)=O)C4(C)OC(=O)CC32)C1 (stereo unspecified)	2.3 µM	
COC(=O)C1=C(C(=O)OC)C2OC1c1cc3ccccc3cc12	0.738 µM	
CNC(=S)NN=C(C)CCCC(C)=NNC(=S)NC	1.26 µM	
O=S(=O)(CCSc1ccccn1)c1nc2ccccc2s1	8.22 µM	

SMILES	AC50 [2]	further results
O=[N+]([O-])c1ccc(N2CCOCC2)c2c1no[n+]2[O-]	1.76 µM	
COc1cc(C(C)C)c2c(c1)S(=O)(=O)N(COc1cc(=O)n3cccc(OCCN4CCCCC4)c3n1)C2=O	2.64 µM	
C[C@H]1CN([C@@H](C)CO)C(=O)c2c(c3ccccc3n2C)-c2ccccc2CO[C@@H]1CN(C)S(=O)(=O)c1ccc([N+](=O)[O-])cc1	> 20 µM (inactive)	
Cc1cc(C)nc(Sc2ncnc(N)c2[N+](=O)[O-])n1	2.63 µM	
c1ccc2sc(-c3ccc4c(c3)OCO4)nc2c1	8.5 µM	
C[C@@H]1CN([C@@H](C)CO)C(=O)c2c(c3ccccc3n2C)-c2ccccc2CO[C@@H]1CN(C)Cc1cccc(C(F)(F)F)c1	7.08 µM	
Cc1cccc(-c2ccc(C3[C@@H]4CN(C(=O)Nc5ccc(C(F)(F)F)cc5)C[C@H]3N4)cc2)c1 (stereo partly specified)	7.37 µM	
CC[C@@]1(O)C(=O)OCc2c1cc1n(c2=O)Cc2cc3ccccc3nc2-1	0.961 µM	
NCCOc1ccc(C23CC4CC(CC(C4)C2)C3)cc1	5.74 µM	
CCN1C(=O)C(CC(=O)Nc2ccc(F)cc2)N(Cc2ccco2)C1=S (stereo unspecified)	5.03 µM	
Cc1c(CCOC(=O)CC23CC4CC(CC(C)(C4)C2)C3)sc[n+]1CC(=O)c1ccccc1	3.22 µM	
C[C@H]1CN([C@@H](C)CO)C(=O)c2c(c3ccccc3n2C)-c2ccccc2CO[C@H]1CN(C)C(=O)Nc1cccc(C(F)(F)F)c1	8.34 µM	
CCOc1ccc(OCc2cccc(C(=O)N3CCOCC3)c2)cc1	2.92 µM	
O=C(c1nnsc1S(=O)(=O)c1ccc(Cl)cc1)N1CCOCC1	2.31 µM	
CN1C(=O)c2cc(NC(=O)c3cccc(Cl)c3)ccc2OC[C@@H]2O[C@@H](CC(=O)NC3CCCCC3)CC[C@H]21	> 20 µM (inactive)	
COc1ccc2c3c([nH]c2c1)[C@H](CO)N(C(=O)Nc1ccc(F)cc1)CC31CN(Cc2cc(F)ccc2F)C1	> 20 µM (inactive)	
CCCCNC(=O)C1(C)CCN1C(=O)c1cc(-c2cccs2)oc1C (stereo unspecified)	3.11 µM	
COC(=O)C12OCC34C(CC5C(C)=C(O)C(=O)CC5(C)C3C(O)C1O)OC(=O)C(OC(=O)C=C(C)C)C24 (stereo unspecified)	0.479 µM	
C=C1C(=O)OC2CC1C(O)CC(C)=CCCC(C)=CC(O)CC2C (stereo unspecified)	6 µM	
Cc1cccc(-c2nc3cc(NC(=O)C4CCCO4)ccc3o2)c1 (stereo unspecified)	> 20 µM (inactive)	
